Results from patent publication US20260297070A1, “CYCLIC [COMPOUND LEFT OUT] WRN INHIBITORS” (Nimbus Wadjet, Inc., priority 2023, published 2026).

target: T1, human Werner helicase (WRN-BV08, Uniprot Q14191, amino acids 517-1235 with L1074F point mutation) (Homo sapiens, UniProt Q14191, L1074F); experiment: WRN (BV08) ADP-Glo Assay; format: biochemical; settings: 0.15 nM WRN, 5 μM ATP, 0.1 nM DNA duplex, 15 min preincubation, 60 min at 25° C., pH 7.5, 1% DMSO; read-out: ADP-Glo_hWRN_IC50
T1 construct: Uniprot Q14191, amino acids 517-1235 with L1074F point mutation; TEV-cleavable 8×His (C, cleaved yes); made in house; host or cells: Sf9 insect cells (baculovirus)
T1 sequence (Q14191 with tags, fused parts or gaps L1074F limits assumed): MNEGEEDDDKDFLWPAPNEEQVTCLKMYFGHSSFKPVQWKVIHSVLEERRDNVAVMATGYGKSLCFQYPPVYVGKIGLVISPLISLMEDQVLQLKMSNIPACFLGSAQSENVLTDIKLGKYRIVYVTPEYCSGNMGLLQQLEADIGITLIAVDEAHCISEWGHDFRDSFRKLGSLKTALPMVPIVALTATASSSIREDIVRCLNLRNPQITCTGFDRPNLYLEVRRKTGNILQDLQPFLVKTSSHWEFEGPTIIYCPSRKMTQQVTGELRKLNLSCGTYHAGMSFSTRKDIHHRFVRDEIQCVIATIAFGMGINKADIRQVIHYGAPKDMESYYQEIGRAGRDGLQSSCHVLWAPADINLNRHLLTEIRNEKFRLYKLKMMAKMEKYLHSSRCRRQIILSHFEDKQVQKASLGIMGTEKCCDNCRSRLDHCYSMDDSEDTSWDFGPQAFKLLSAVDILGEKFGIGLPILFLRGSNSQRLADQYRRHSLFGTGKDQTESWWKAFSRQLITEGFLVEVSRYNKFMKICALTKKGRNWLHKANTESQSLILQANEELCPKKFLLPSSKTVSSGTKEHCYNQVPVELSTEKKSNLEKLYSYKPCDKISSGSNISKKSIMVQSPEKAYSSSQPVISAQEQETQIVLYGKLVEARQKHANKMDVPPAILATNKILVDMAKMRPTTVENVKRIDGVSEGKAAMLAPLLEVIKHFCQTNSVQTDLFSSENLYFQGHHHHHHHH
Excerpt: Example 2: WRN (BV08) ADP-Glo Assay Protocol
Bovine skin gelatin (BSG), dimethyl sulfoxide (DMSO), Pluronic F-127 and Tris(2-carboxyethyl)phosphine hydrochloride solution (TCEP) were purchased from Sigma-Aldrich at the highest level of purity possible. Bicine buffer solution was purchased from Alfa Aesar and compound NSC-617145 was purchased from Tocris. DNA duplex was synthesized at BGI (Shenzhen, China) and was composed of strand 1 with the sequence 5′-[…]-3′ (SEQ ID NO.: 1) and strand 2 with the sequence 5′-[…]-3′ (SEQ ID NO.: 2). DNA strands were annealed by heating to 95° C. for 5 minutes followed by slow cooling to room temperature. Compounds in 100% DMSO (0.1 μl) were spotted into a 384-well white polystyrene Optiplate-384 (Perkin Elmer) assay plate using a LabCyte Echo 550 (Agilent). DMSO (0.1 μl) was added to columns 12, rows A-H and column 24, rows I-P for the maximum signal control. Compound NSC-617145 (0.1 μl) was added to columns 12, rows I-P and 24, rows A-H for the minimum signal control (100% inhibition). Compounds/DMSO were preincubated for 15 minutes at 25° C. with 5 uL 2×WRN (BV08), prepared as described below, in assay buffer containing 20 mM Bicine (pH=7.5), 1 mM MgCl2, 10 mM KCl, 0.1% Pluronic F-127, 0.005% BSG, 1 mM TCEP. The reaction was initiated by the addition of 5 μl 2× substrate mixture in assay buffer and incubated for 60 minutes at 25° C. The final concentrations of the assay components were 0.15 nM WRN, 5 μM ATP, and 0.1 nM DNA duplex. The final DMSO concentration was 1% and the reference compound concentration (NSC-617145) used for the minimal signal control was 20 μM. The reaction was stopped by the addition of the ADP-Glo Kit components (Promega) as directed and the relative luminescence units (RLU) were read on an Envision 2104 (Perkin Elmer).
% Inhibition Calculation:
Where RLU=relative luminescence units, sample=signal in sample well, and MIN and MAX are the respective minimum and maximum signal controls.
Four-Parameter IC50 Fit Equation:
Where top and bottom are normally allowed to float but may be fixed at 100 or 0 respectively in a 3-parameter fit. Y is the % inhibition and X is the compound concentration.
Molecular Biology and virus production. The DNA encoding human Werner helicase (Uniprot Q14191, amino acids 517-1235 with L1074F point mutation) was generated with codon-optimization for E. coli expression and subcloned into the pFastBac vector with a TEV cleavable 8×His tag (WRN-BV08). The baculovirus from the expression plasmid WRN-BV08 was generated from transfection and amplification following the manufacturer's instructions.
Sf9 cells grown in SF900II media were infected with 1:200 WRN-BV08 P2 virus and incubated for protein expression for 72 h at 27° C. The WRN protein was purified using the following protocol. The cell pellets were thawed and resuspended in buffer A (50 mM Tris, pH 7.5, 500 mM NaCl, 1 mM TCEP, 10% Glycerol) supplemented with 0.5% CHAPS, 1 mM [COMPOUND LEFT OUT], 1 μg/mL Leupeptin, 1 μg/mL Pepstatin, and the Pierce Universal Nuclease and cocktail tablet. Cleared lysates were loaded onto a Ni Sepharose™ excel column and washed with buffer A and bound protein was eluted with buffer A supplemented with 300 mM imidazole. The eluted protein was dialyzed against buffer A and digested by His-tagged TEV (1:5 ratio) overnight at 4° C. ZnCl2 was added into the sample at final 15 μM before loading onto a second Ni Sepharose™ excel column. Untagged WRN protein was eluted from the column with buffer A supplemented with 20 mM imidazole, dialyzed overnight into buffer B (50 mM Tris, pH 7.5, 1 mM TCEP, 10% Glycerol) supplemented with 150 mM NaCl and loaded onto a Heparin column. Proteins were eluted with a step gradient of buffer B supplemented with 150 mM, 200 mM, 300 mM and 500 mM NaCl. […]

First: COC(C(=O)N(Cc1ccncc1)C1C=CS(=O)(=O)C1)c1ccc(-c2ccc(F)cc2)cc1 (single isomer, unassigned) [I-72, (2R*)-N-[(3R**)-1,1-dioxo-2,3-dihydro-1lambda6-thiophen-3-yl]-2-{4′-fluoro-[1,1′-biphenyl]-4-yl}-2-methoxy-N-[(pyridin-4-yl)methyl]acetamide]
Second: CC(=O)N(C)C(C(=O)N(Cc1ccncc1)C1C=CS(=O)(=O)C1)c1ccc(-c2ccc(F)cc2)cc1 (single isomer, unassigned) [I-282]
The IC50 of the first is lower: < 0.5 µM for the first, 10 to 50 µM for the second.

`O=C(Cc1ccc(-n2cccc2)cc1F)N(Cc1ccncc1)C1C=CS(=O)(=O)C1` (single isomer, unassigned) [I-127] and `O=C(Cc1ccc(-n2cccc2)cc1)N(Cc1ccncc1)C1C=CS(=O)(=O)C1` (single isomer, unassigned) [I-193] fall in the same range of IC50: 0.5 to 5 µM for the first, 0.5 to 5 µM for the second.

First: COc1cc(CN(C(=O)Cc2ccc(-c3ccc(F)cc3O)nc2)C2C=CS(=O)(=O)C2)ccn1 (single isomer, unassigned) [I-130]
Second: COc1cc(CN(C(=O)Cc2ccc(-n3cccc3C)cc2F)C2C=CS(=O)(=O)C2)ccn1 (single isomer, unassigned) [I-329]
The IC50 of the first is lower: 0.5 to 5 µM for the first, 10 to 50 µM for the second. The first is the more potent here.

First: O=C(Cn1cc(-c2ccccc2)cn1)N(Cc1ccncc1)C1C=CS(=O)(=O)C1 (single isomer, unassigned) [I-133]
Second: O=C(Cc1ccc(-n2cccc2)cc1)N(Cc1ccccc1)C1C=CS(=O)(=O)C1 (single isomer, unassigned) [I-262]
The IC50 of the first is lower: 0.5 to 5 µM for the first, 5 to 10 µM for the second. The first is the more potent here.

Compared with `COC(C(=O)N(Cc1ccnc(C(C)(C)O)c1)C1C=CS(=O)(=O)C1)c1ccc(-c2ccc(F)cc2)cc1F` (single isomer, unassigned) [I-199, (2R*)-2-{3,4′-difluoro-[1,1′-biphenyl]-4-yl}-N-[(3R**)-1,1-dioxo-2,3-dihydro-1lambda6-thiophen-3-yl]-N-{[2-(2-hydroxypropan-2-yl)pyridin-4-yl]methyl}-2-methoxyacetamide], `CN(C)C(=O)C(C(=O)N(Cc1ccnc(C(C)(C)O)c1)C1C=CS(=O)(=O)C1)c1ccc(-c2ccc(F)cc2)cc1F` (single isomer, unassigned) [I-237, (2R**)-2-{3,4′-difluoro-[1,1′-biphenyl]-4-yl}-N-[(3R*)-1,1-dioxo-2,3-dihydro-1lambda6-thiophen-3-yl]-N-{[2-(2-hydroxypropan-2-yl)pyridin-4-yl]methyl}-N′,N′-dimethylpropanediamide] is higher in IC50: 0.5 to 5 µM for the first, 5 to 10 µM for the second.

`COc1cc(CN(C(=O)C(C(=O)N(C)C)c2ccc(-c3ccc(F)cc3)cc2F)C2C=CS(=O)(=O)C2)ccn1` (single isomer, unassigned) [I-235, (2R**)-2-{3,4′-difluoro-[1,1′-biphenyl]-4-yl}-N-[(3R*)-1,1-dioxo-2,3-dihydro-1lambda6-thiophen-3-yl]-N-[(2-methoxypyridin-4-yl)methyl]-N′,N′-dimethylpropanediamide] and `CN(C)C(=O)C(C(=O)N(Cc1ccnc(C(C)(C)O)c1)C1C=CS(=O)(=O)C1)c1ccc(-c2ccc(F)cc2)cc1F` (single isomer, unassigned) [I-258, (2R**)-2-{3,4′-difluoro-[1,1′-biphenyl]-4-yl}-N-[(3R*)-1,1-dioxo-2,3-dihydro-1lambda6-thiophen-3-yl]-N-{[2-(2-hydroxypropan-2-yl)pyridin-4-yl]methyl}-N′,N′-dimethylpropanediamide] fall in the same range of IC50: 5 to 10 µM for the first, 5 to 10 µM for the second.

`O=C(Cc1ccc(S(F)(F)(F)(F)F)cc1)N(Cc1nc(C2CC2)cs1)C1C=CS(=O)(=O)C1` (single isomer, unassigned) [I-253] and `O=C(Cc1ccc(S(F)(F)(F)(F)F)cc1)N(Cc1ccncc1)C1C=CS(=O)(=O)C1` (single isomer, unassigned) [I-336] fall in the same range of IC50: 10 to 50 µM for the first, 10 to 50 µM for the second.

First: CN(C)C(=O)C(C(=O)N(Cc1ccnc(C(C)(C)O)c1)C1C=CS(=O)(=O)C1)c1ccc(-c2ccc(F)cc2)cc1 (single isomer, unassigned) [I-264, (2R**)-N-[(3R*)-1,1-dioxo-2,3-dihydro-1lambda6-thiophen-3-yl]-2-{4′-fluoro-[1,1′-biphenyl]-4-yl}-N-{[2-(2-hydroxypropan-2-yl)pyridin-4-yl]methyl}-N′,N′-dimethylpropanediamide]
Second: CN(C)C(=O)C(C(=O)N(Cc1ccnc(C(C)(C)O)c1)C1C=CS(=O)(=O)C1)c1ccc(-c2ccc(F)cc2)cc1F (single isomer, unassigned) [I-340, (2R**)-2-{3,4′-difluoro-[1,1′-biphenyl]-4-yl}-N-[(3R*)-1,1-dioxo-2,3-dihydro-1lambda6-thiophen-3-yl]-N-{[2-(2-hydroxypropan-2-yl)pyridin-4-yl]methyl}-N′,N′-dimethylpropanediamide]
The IC50 of the first is lower: 5 to 10 µM for the first, 10 to 50 µM for the second. The first is the more potent here.

First: COc1cc(CN(C(=O)C(C(=O)N(C)C)c2ccc(-c3ccc(F)cc3)cc2F)C2C=CS(=O)(=O)C2)ccn1 (single isomer, unassigned) [I-267, (2R**)-2-{3,4′-difluoro-[1,1′-biphenyl]-4-yl}-N-[(3R*)-1,1-dioxo-2,3-dihydro-1lambda6-thiophen-3-yl]-N-[(2-methoxypyridin-4-yl)methyl]-N′,N′-dimethylpropanediamide]
Second: CN(C)C(=O)C(C(=O)N(Cc1ccnc(C(C)(C)O)c1)C1C=CS(=O)(=O)C1)c1ccc(-c2ccc(F)cc2)cc1 (single isomer, unassigned) [I-271, (2R**)-N-[(3R*)-1,1-dioxo-2,3-dihydro-1lambda6-thiophen-3-yl]-2-{4′-fluoro-[1,1′-biphenyl]-4-yl}-N-{[2-(2-hydroxypropan-2-yl)pyridin-4-yl]methyl}-N′,N′-dimethylpropanediamide]
The IC50 of the first is higher: 10 to 50 µM for the first, 5 to 10 µM for the second.

`O=C(Cn1cc(-c2ccccc2)cn1)N(Cc1ccncc1)C1C=CS(=O)(=O)C1` (single isomer, unassigned) [I-281] and `COC(C(=O)N(Cc1ccncc1)C1C=CS(=O)(=O)C1)c1ccc(-c2ccc(F)cc2)cc1` (single isomer, unassigned) [I-330, (2R*)-N-[(3R**)-1,1-dioxo-2,3-dihydro-1lambda6-thiophen-3-yl]-2-{4′-fluoro-[1,1′-biphenyl]-4-yl}-2-methoxy-N-[(pyridin-4-yl)methyl]acetamide] fall in the same range of IC50: 10 to 50 µM for the first, 10 to 50 µM for the second.

Compared with `CN(C)C(=O)C(C(=O)N(Cc1ccnc(C(C)(C)O)c1)C1C=CS(=O)(=O)C1)c1ccc(-c2ccc(F)cc2)cc1` (single isomer, unassigned) [I-309, (2R**)-N-[(3R*)-1,1-dioxo-2,3-dihydro-1lambda6-thiophen-3-yl]-2-{4′-fluoro-[1,1′-biphenyl]-4-yl}-N-{[2-(2-hydroxypropan-2-yl)pyridin-4-yl]methyl}-N′,N′-dimethylpropanediamide], `COc1cc(CN(C(=O)C(C(=O)N(C)C)c2ccc(-c3ccc(F)cc3)cc2F)C2C=CS(=O)(=O)C2)ccn1` (single isomer, unassigned) [I-312, (2R**)-2-{3,4′-difluoro-[1,1′-biphenyl]-4-yl}-N-[(3R*)-1,1-dioxo-2,3-dihydro-1lambda6-thiophen-3-yl]-N-[(2-methoxypyridin-4-yl)methyl]-N′,N′-dimethylpropanediamide] is higher in IC50: 10 to 50 µM for the first, > 50 µM for the second. The first is the more potent here.

`CC(C)(O)c1cc(CN(C(=O)Cc2ccc(-c3ccc(F)c(F)c3)cc2F)C2C=CS(=O)(=O)C2)ccn1` (single isomer, unassigned) [I-332] showed an IC50 of 10 to 50 µM.
